Experimental data as given in PubChem BioAssay (NCI).
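All cell lines were grown in 96-well plates and treated with compound for 48 hours. GI50 marks 50% less growth. The concentration for full growth arrest is given as TGI.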

What was measured:
Experiment in all cases: NCI tumour cell line growth inhibition, 48 h
SR leukemia = system: SR leukemia
PC-3 prostate = system: PC-3 prostate
TK-10 renal = system: TK-10 renal
A549 NSCLC = system: A549 NSCLC
RXF 393 renal = system: RXF 393 renal
NCI/ADR-RES ovarian = system: NCI/ADR-RES ovarian
UO-31 renal = system: UO-31 renal
OVCAR-3 ovarian = system: OVCAR-3 ovarian
HL-60(TB) leukemia = system: HL-60(TB) leukemia
SK-OV-3 ovarian = system: SK-OV-3 ovarian
BT-549 breast = system: BT-549 breast
SK-MEL-5 melanoma = system: SK-MEL-5 melanoma
CAKI-1 renal = system: CAKI-1 renal
EKVX NSCLC = system: EKVX NSCLC
OVCAR-4 ovarian = system: OVCAR-4 ovarian
HS 578T breast = system: HS 578T breast
HCT-116 colon = system: HCT-116 colon
LOX IMVI melanoma = system: LOX IMVI melanoma
NCI-H460 lung = system: NCI-H460 lung
UACC-257 melanoma = system: UACC-257 melanoma
ACHN renal = system: ACHN renal
SN12C renal = system: SN12C renal
IGROV1 ovarian = system: IGROV1 ovarian
HOP-62 NSCLC = system: HOP-62 NSCLC
MALME-3M melanoma = system: MALME-3M melanoma
A498 renal = system: A498 renal
786-0 renal = system: 786-0 renal
SW-620 colon = system: SW-620 colon
DU-145 prostate = system: DU-145 prostate
SF-268 CNS = system: SF-268 CNS
MOLT-4 leukemia = system: MOLT-4 leukemia
MDA-MB-231 breast = system: MDA-MB-231 breast
UACC-62 melanoma = system: UACC-62 melanoma
SK-MEL-2 melanoma = system: SK-MEL-2 melanoma
HOP-92 NSCLC = system: HOP-92 NSCLC
KM12 colon = system: KM12 colon
OVCAR-8 ovarian = system: OVCAR-8 ovarian
SF-295 CNS = system: SF-295 CNS
SNB-75 CNS = system: SNB-75 CNS
HT29 colon = system: HT29 colon
T-47D breast = system: T-47D breast
NCI-H226 lung = system: NCI-H226 lung
SF-539 CNS = system: SF-539 CNS
U251 CNS = system: U251 CNS
RPMI-8226 leukemia = system: RPMI-8226 leukemia
K-562 leukemia = system: K-562 leukemia
HCT-15 colon = system: HCT-15 colon
HCC-2998 colon = system: HCC-2998 colon
NCI-H522 lung = system: NCI-H522 lung
MDA-MB-435 = system: MDA-MB-435
NCI-H23 lung = system: NCI-H23 lung
COLO 205 colon = system: COLO 205 colon
CCRF-CEM leukemia = system: CCRF-CEM leukemia
MCF7 breast = system: MCF7 breast
SNB-19 CNS = system: SNB-19 CNS
SK-MEL-28 melanoma = system: SK-MEL-28 melanoma
M14 melanoma = system: M14 melanoma
OVCAR-5 ovarian = system: OVCAR-5 ovarian

## CC(=O)O[C@H]1C(=O)[C@@]2(C)[C@H]([C@H](OC(=O)c3ccccc3)[C@]3(O)C[C@H](OC(=O)[C@H](OC(=O)OC[C@H]4COC(C)(C)O4)[C@@H](NC(=O)c4ccccc4)c4ccccc4)C(C)=C1C3(C)C)[C@]1(OC(C)=O)CO[C@@H]1C[C@@H]2O
SR leukemia
  GI50: 12.6 nM
  TGI: > 33300 nM
PC-3 prostate
  GI50: 30.5 nM
  TGI: > 33300 nM
TK-10 renal
  GI50: 492 nM
  TGI: > 33300 nM
A549 NSCLC
  GI50: 29.5 nM
  TGI: > 33300 nM
RXF 393 renal
  GI50: 30.7 nM
  TGI: 201 nM
NCI/ADR-RES ovarian
  GI50: > 33300 nM
  TGI: > 33300 nM
UO-31 renal
  GI50: 738 nM
  TGI: > 33300 nM
OVCAR-3 ovarian
  GI50: 10.9 nM
  TGI: 252 nM
HL-60(TB) leukemia
  GI50: 16.8 nM
  TGI: > 33300 nM
SK-OV-3 ovarian
  GI50: 232 nM
  TGI: > 33300 nM
BT-549 breast
  GI50: 57.6 nM
  TGI: > 33300 nM
SK-MEL-5 melanoma
  GI50: 83.2 nM
  TGI: > 33300 nM
CAKI-1 renal
  GI50: 88.5 nM
  TGI: > 33300 nM
EKVX NSCLC
  GI50: 113 nM
  TGI: > 33300 nM
OVCAR-4 ovarian
  GI50: > 33300 nM
  TGI: > 33300 nM
HS 578T breast
  GI50: 16.6 nM
  TGI: 390 nM
HCT-116 colon
  GI50: 5.96 nM
  TGI: > 33300 nM
LOX IMVI melanoma
  GI50: 14 nM
  TGI: > 33300 nM
NCI-H460 lung
  GI50: 6.01 nM
  TGI: > 33300 nM
UACC-257 melanoma
  TGI: > 33300 nM
ACHN renal
  GI50: 343 nM
  TGI: > 33300 nM
SN12C renal
  GI50: 48.3 nM
  TGI: > 33300 nM
IGROV1 ovarian
  GI50: 49.4 nM
  TGI: > 33300 nM
HOP-62 NSCLC
  GI50: 59.6 nM
  TGI: > 33300 nM
MALME-3M melanoma
  GI50: 227 nM
  TGI: > 33300 nM
A498 renal
  GI50: 54.5 nM
  TGI: 499 nM
786-0 renal
  GI50: 122 nM
  TGI: > 33300 nM
SW-620 colon
  GI50: 13.8 nM
  TGI: > 33300 nM
DU-145 prostate
  GI50: 29 nM
SF-268 CNS
  GI50: 165 nM
  TGI: > 33300 nM
MOLT-4 leukemia
  GI50: 40.8 nM
  TGI: > 33300 nM
MDA-MB-231 breast
  GI50: 73.6 nM
  TGI: > 7740 nM
UACC-62 melanoma
  GI50: 46 nM
  TGI: > 33300 nM
SK-MEL-2 melanoma
  GI50: 97.8 nM
  TGI: > 33300 nM
HOP-92 NSCLC
  GI50: 51.9 nM
  TGI: > 33300 nM
KM12 colon
  GI50: 9.43 nM
  TGI: > 33300 nM
OVCAR-8 ovarian
  GI50: 59.8 nM
  TGI: > 33300 nM
SF-295 CNS
  GI50: 36.5 nM
  TGI: 314 nM
SNB-75 CNS
  GI50: 3.33 nM
  TGI: 69.7 nM
HT29 colon
  GI50: 5.9 nM
  TGI: > 33300 nM
T-47D breast
  GI50: 43.7 nM
  TGI: > 33300 nM
NCI-H226 lung
  GI50: 290 nM
  TGI: > 33300 nM
SF-539 CNS
  GI50: 57.9 nM
  TGI: 16700 nM
U251 CNS
  GI50: 28.8 nM
  TGI: > 33300 nM
RPMI-8226 leukemia
  GI50: 7.54 nM
  TGI: > 33300 nM
K-562 leukemia
  GI50: 12.2 nM
  TGI: > 33300 nM
HCT-15 colon
  GI50: 228 nM
  TGI: > 33300 nM
HCC-2998 colon
  GI50: 9.83 nM
  TGI: > 33300 nM
NCI-H522 lung
  GI50: 32.4 nM
  TGI: > 33300 nM
MDA-MB-435
  GI50: 3.33 nM
  TGI: 8.52 nM
NCI-H23 lung
  GI50: 47.6 nM
  TGI: > 33300 nM
COLO 205 colon
  GI50: 21.6 nM
  TGI: > 33300 nM
CCRF-CEM leukemia
  GI50: 26.5 nM
  TGI: > 33300 nM
MCF7 breast
  GI50: 5.06 nM
  TGI: > 33300 nM
SNB-19 CNS
  GI50: 61.5 nM
  TGI: > 33300 nM
SK-MEL-28 melanoma
  GI50: > 33300 nM
  TGI: > 33300 nM
M14 melanoma
  GI50: 17.1 nM
  TGI: 133 nM
OVCAR-5 ovarian
  GI50: 43.3 nM
  TGI: > 33300 nM

## COC(=O)c1c2c(c(C)[n+]([O-])c1C)C(=O)C=C(NCc1cccc(Cl)c1)C2=O
SR leukemia
  GI50: 350 nM
  TGI: 6640 nM
PC-3 prostate
  GI50: 257 nM
  TGI: 2600 nM
TK-10 renal
  GI50: 2430 nM
  TGI: 6520 nM
A549 NSCLC
  GI50: 462 nM
  TGI: 2220 nM
RXF 393 renal
  GI50: 1200 nM
  TGI: 2530 nM
NCI/ADR-RES ovarian
  GI50: 307 nM
  TGI: 1790 nM
UO-31 renal
  GI50: 1090 nM
  TGI: 2350 nM
OVCAR-3 ovarian
  GI50: 221 nM
  TGI: 665 nM
HL-60(TB) leukemia
  GI50: 287 nM
  TGI: 935 nM
SK-OV-3 ovarian
  GI50: 1920 nM
  TGI: 5140 nM
BT-549 breast
  GI50: 1260 nM
  TGI: 2630 nM
SK-MEL-5 melanoma
  GI50: 167 nM
  TGI: 316 nM
CAKI-1 renal
  GI50: 204 nM
  TGI: 1950 nM
EKVX NSCLC
  GI50: 762 nM
  TGI: 2150 nM
OVCAR-4 ovarian
  GI50: 210 nM
  TGI: 938 nM
HS 578T breast
  GI50: 1770 nM
  TGI: 6790 nM
HCT-116 colon
  GI50: 284 nM
  TGI: 976 nM
LOX IMVI melanoma
  GI50: 68.7 nM
  TGI: 1350 nM
NCI-H460 lung
  GI50: 381 nM
  TGI: 1600 nM
UACC-257 melanoma
  GI50: 234 nM
  TGI: 725 nM
ACHN renal
  GI50: 661 nM
  TGI: 2040 nM
SN12C renal
  GI50: 298 nM
  TGI: 1020 nM
IGROV1 ovarian
  GI50: 221 nM
  TGI: 1090 nM
HOP-62 NSCLC
  GI50: 1130 nM
  TGI: 2800 nM
MALME-3M melanoma
  GI50: 136 nM
  TGI: 309 nM
A498 renal
  GI50: 1210 nM
  TGI: 2460 nM
786-0 renal
  GI50: 1440 nM
  TGI: 3640 nM
SW-620 colon
  GI50: 244 nM
  TGI: 1230 nM
DU-145 prostate
  GI50: 821 nM
  TGI: 2180 nM
SF-268 CNS
  GI50: 737 nM
  TGI: 3150 nM
MOLT-4 leukemia
  GI50: 505 nM
  TGI: 1890 nM
MDA-MB-231 breast
  GI50: 261 nM
  TGI: 2770 nM
UACC-62 melanoma
  GI50: 74.1 nM
  TGI: 459 nM
SK-MEL-2 melanoma
  GI50: 1040 nM
  TGI: 2770 nM
HOP-92 NSCLC
  GI50: 1810 nM
  TGI: 4100 nM
KM12 colon
  GI50: 200 nM
  TGI: 1690 nM
OVCAR-8 ovarian
  GI50: 275 nM
  TGI: 1210 nM
SF-295 CNS
  GI50: 422 nM
  TGI: 1660 nM
SNB-75 CNS
  GI50: 1640 nM
  TGI: 3010 nM
HT29 colon
  GI50: 310 nM
T-47D breast
  GI50: 187 nM
  TGI: 1710 nM
NCI-H226 lung
  GI50: 1410 nM
  TGI: 3550 nM
SF-539 CNS
  GI50: 525 nM
  TGI: 1490 nM
U251 CNS
  GI50: 367 nM
  TGI: 1550 nM
RPMI-8226 leukemia
  GI50: 860 nM
  TGI: 4280 nM
K-562 leukemia
  GI50: 85 nM
  TGI: > 30200 nM
HCT-15 colon
  GI50: 205 nM
  TGI: 1520 nM
HCC-2998 colon
  GI50: 329 nM
  TGI: 1420 nM
NCI-H522 lung
  GI50: 261 nM
  TGI: 1700 nM
MDA-MB-435
  GI50: 116 nM
  TGI: 251 nM
NCI-H23 lung
  GI50: 463 nM
  TGI: 2540 nM
COLO 205 colon
  GI50: 292 nM
  TGI: 961 nM
CCRF-CEM leukemia
  GI50: 444 nM
MCF7 breast
  GI50: 238 nM
  TGI: 766 nM
SNB-19 CNS
  GI50: 1010 nM
  TGI: 2180 nM
SK-MEL-28 melanoma
  GI50: 716 nM
  TGI: 2090 nM
M14 melanoma
  GI50: 280 nM
  TGI: 1560 nM
OVCAR-5 ovarian
  GI50: 1180 nM
  TGI: 2570 nM
